Measurements as given in patent publication US8846656B2, “Tetrahydropyrido-pyridine and tetrahydropyrido-pyrimidine compounds and use thereof as C5a receptor modulators” (Novartis AG, priority 2011, dated 2014).
Where “and” joins values, the source holds several entries; their conditions need not be identical. Equal values may be shown once.

target: human C5aR (Homo sapiens (Human), UniProt P21730); test: FLIPR assay: inhibition of C5a-mediated calcium mobilization; type: cell-based; settings: stable cell line over expressing human C5aR & Gα15, human C5a at EC50 (0.1-0.25 nM)
Sequence (P21730 whole entry): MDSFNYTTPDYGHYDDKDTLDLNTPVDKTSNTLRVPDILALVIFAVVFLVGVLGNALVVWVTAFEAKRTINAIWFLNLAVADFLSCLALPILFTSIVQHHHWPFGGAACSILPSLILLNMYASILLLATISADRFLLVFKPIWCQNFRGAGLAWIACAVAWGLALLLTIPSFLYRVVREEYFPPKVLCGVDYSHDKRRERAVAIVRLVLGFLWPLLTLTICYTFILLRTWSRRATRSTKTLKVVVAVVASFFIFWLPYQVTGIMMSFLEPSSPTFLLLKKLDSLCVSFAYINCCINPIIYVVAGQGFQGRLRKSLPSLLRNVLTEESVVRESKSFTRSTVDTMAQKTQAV
Procedure: Compounds were tested for their ability to inhibit C5a-mediated calcium mobilization using a stable cell line over expressing the human C5aR & the Gα15 protein on the FLIPR (Fluorescent Imaging Plate Reader) Tetra system. Cells were maintained in culture media containing DMEM (Dulbecco's Modified Eagle Medium) with 4.5 g/L glucose, 10% fetal bovine serum, 100 U/mL, 1× non-essential amino acid, and 250 μg/mL G418 (Geneticin). Prior to testing of compounds, cells were plated at 10,000 cells/well in clear bottom 384-well black plate, and incubated overnight at 37° C. with 5% CO2. On the day of experiment, culture media was removed, and replaced with assay buffer HBSS (Hanks' Balanced Salt Solution) with 20 mM HEPES (4-(2-hydroxyethyl)-1-piperazineethanesulfonic acid) and 0.1% BSA (bovine serum albumin) BSA containing calcium 5 dye (Molecular Devices) and 2.5 mM probenecid. After 1 hour incubation at 37° C., 5% CO2 for 60 min, cells were pre-incubated with compounds for 30 minutes at room temperature, in 1% DMSO (dimethyl sulfoxide).

Q: Which IC50 does the source give for `CCn1nc(C)c(N2CCc3nc(-c4c(C)ccc5[nH]ncc45)cc(C)c3C2)c1C` [Example 40-P, 6-(1-ethyl-3,5-dimethyl-1H-pyrazol-4-yl)-4-methyl-2-(5-methyl-1H-indazol-4-yl)-5,6,7,8-tetrahydro-1,6-naphthyridine] here?
A: 37 nM

Q: Which IC50 does the source give for `CCc1cccc(CC)c1-c1cc(C)c2c(n1)CCN(c1ccc(C)cc1C)C2` [Example 40-L, 2-(2,6-diethylphenyl)-6-(2,4-dimethylphenyl)-4-methyl-5,6,7,8-tetrahydro-1,6-naphthyridine] here?
A: 180 nM

Q: For `Cc1ccc(C(C)C)cc1N1CCc2nc(-c3c(C4CC4)cnc4[nH]ccc34)nc(N3CCCC(C)(C)C3)c2C1` [Example 20-D, 2-(5-Cyclopropyl-1H-pyrrolo[2,3-b]pyridin-4-yl)-4-(3,3-dimethylpiperidin-1-yl)-6-(5-isopropyl-2-methylphenyl)-5,6,7,8-tetrahydropyrido[4,3-d]pyrimidine], which IC50 is on record?
A: 164 nM

Q: For `COc1ccc(C)c(N2CCc3nc(-c4c(C)ccc5[nH]ncc45)cc(C)c3C2)c1` [Example 46-C], which IC50 is on record?
A: 25 nM

Q: With `Cc1c[nH]c2cccc(-c3nc4c(c(N5CCN(CC(N)=O)[C@H](C)C5)n3)CN(c3ccc(F)cc3F)CC4)c12` [Example 24-I, (R)-2-(4-(6-(2,4-difluorophenyl)-2-(3-methyl-1H-indol-4-yl)-5,6,7,8-tetrahydropyrido[4,3-d]pyrimidin-4-yl)-2-methylpiperazin-1-yl)acetamide] as the compound, how does the IC50 read?
A: 464 nM

Q: With `CO[C@H]1CCN(c2nc(-c3cccc4[nH]cc(C)c34)nc3c2CN(c2cc(C4CC4)ccc2C)CC3)CC1(C)C` [Example 19-N, (S)-6-(5-cyclopropyl-2-methylphenyl)-4-(4-methoxy-3,3-dimethylpiperidin-1-yl)-2-(3-methyl-1H-indol-4-yl)-5,6,7,8-tetrahydropyrido[4,3-d]pyrimidine] as the compound, how does the IC50 read?
A: 29 nM

Q: How did the IC50 turn out when `COCCN(C)c1cc(-c2c(C)cccc2C)nc2c1C(=O)N(c1cc(C(C)C)ccc1C)CC2` [Example 50-E, 2-(2,6-dimethylphenyl)-6-(5-isopropyl-2-methylphenyl)-4-((2-methoxyethyl)(methyl)amino)-7,8-dihydro-1,6-naphthyridin-5(6H)-one] was run?
A: 790 nM

Q: How did the IC50 turn out when `CC(=O)N1CCN(c2nc(-c3ccccc3C(F)(F)F)nc3c2CN(c2cc(C(C)C)ccc2C)CC3)[C@H](C)C1` [Example 25-F, (R)-1-(4-(6-(5-isopropyl-2-methylphenyl)-2-(2-(trifluoromethyl)phenyl)-5,6,7,8-tetrahydropyrido[4,3-d]pyrimidin-4-yl)-3-methylpiperazin-1-yl)ethanone] was run?
A: 23 nM

Q: Which IC50 does the source give for `CC(=O)N1CCN(c2nc(-c3cccc4[nH]cc(C)c34)nc3c2CN(c2cc(C(C)C)ccc2C)CC3)CC12CC2` [Example 53, 1-(7-(6-(5-Isopropyl-2-methylphenyl)-2-(3-methyl-1H-indol-4-yl)-5,6,7,8-tetrahydropyrido[4,3-d]pyrimidin-4-yl)-4,7-diazaspiro[2.5]octan-4-yl)ethanone] here?
A: 18 nM

Q: With `Cc1ccc(C(C)C)cc1N1CCc2nc(-c3cccc4[nH]cc(C)c34)nc(N3CC4(COC4)C3)c2C1` [Example 17-BE, 6-(6-(5-isopropyl-2-methylphenyl)-2-(3-methyl-1H-indol-4-yl)-5,6,7,8-tetrahydropyrido[4,3-d]pyrimidin-4-yl)-2-oxa-6-azaspiro[3.3]heptanes] as the compound, how does the IC50 read?
A: 415 nM

Q: For `Cc1ccccc1N1CCc2nc(-c3c(C)cccc3C)nc(N3CCOC(C)(C)C3)c2C1` [Example 17-Y, 4-(2-(2,6-dimethylphenyl)-6-(o-tolyl)-5,6,7,8-tetrahydropyrido[4,3-d]pyrimidin-4-yl)-2,2-dimethylmorpholine], which IC50 is on record?
A: 160 nM

Q: With `CO[C@@H]1CCN(c2nc(-c3c(C)ccc4[nH]nc(C)c34)nc3c2CN(c2c(Cl)c(C4CC4)nn2C)CC3)CC1(C)C` [Example 55-G, (R)-6-(4-Chloro-3-cyclopropyl-1-methyl-1H-pyrazol-5-yl)-2-(3,5-dimethyl-1H-indazol-4-yl)-4-(4-methoxy-3,3-dimethylpiperidin-1-yl)-5,6,7,8-tetrahydropyrido[4,3-d]pyrimidine] as the compound, how does the IC50 read?
A: 4 nM and 2 nM

Q: Which IC50 does the source give for `Cc1ccc(C(C)C)cc1N1CCc2nc(-c3cccc4[nH]cc(C)c34)nc(N3CCC(O)C(C)(C)C3)c2C1` (stereo not drawn) [Example 17-AI, l-(6-(5-isopropyl-2-methylphenyl)-2-(3-methyl-1H-indol-4-yl)-5,6,7,8-tetrahydropyrido[4,3-d]pyrimidin-4-yl)-3,3-dimethylpiperidin-4-ol] here?
A: 19 nM

Q: Which IC50 does the source give for `CO[C@@H]1CCN(c2nc(-c3cccc4[nH]cc(C)c34)nc3c2CN(c2cc(C(C)C)ccc2C)CC3)CC1(C)C` [Example 17-AM, (R)-6-(5-Isopropyl-2-methylphenyl)-4-(4-methoxy-3,3-dimethylpiperidin-1-yl)-2-(3-methyl-1H-indol-4-yl)-5,6,7,8-tetrahydropyrido[4,3-d]pyrimidine] here?
A: 2 nM

Q: Which IC50 does the source give for `[2H]C1([2H])c2c(C)cc(-c3c(CC)cccc3CC)nc2CCN1c1c(C)ccnc1C` [Example 44-D, 2-(2,6-Diethylphenyl)-6-(2,4-dimethylpyridin-3-yl)-4-methyl-5,6,7,8-tetrahydro(5,5-^2H2)-1,6-naphthyridine] here?
A: 131 nM

Q: Which IC50 does the source give for `CO[C@H]1CCN(c2nc(-c3cccc4cnn(C)c34)nc3c2CN(c2cc(C4(C)COC4)ccc2C)CC3)CC1(C)C` [Example 19-L, (S)-4-(4-methoxy-3,3-dimethylpiperidin-1-yl)-2-(1-methyl-1H-indazol-7-yl)-6-(2-methyl-5-(3-methyloxetan-3-yl)phenyl)-5,6,7,8-tetrahydropyrido[4,3-d]pyrimidine] here?
A: 746 nM

Q: How did the IC50 turn out when `CNc1nc(-c2cccc3[nH]cc(C)c23)nc2c1CN(c1cc(C(C)C)ccc1C)CC2` [Example 17-AJ, 6-(5-isopropyl-2-methylphenyl)-N-methyl-2-(3-methyl-1H-indol-4-yl)-5,6,7,8-tetrahydropyrido[4,3-d]pyrimidin-4-amine] was run?
A: 94 nM

Q: With `Cc1ccc(C(C)C)cc1N1CCc2nc(-c3cccc4[nH]nc(C)c34)cc(C)c2C1` [Example 41-E, 6-(5-isopropyl-2-methylphenyl)-4-methyl-2-(3-methyl-1H-indazol-4-yl)-5,6,7,8-tetrahydro-1,6-naphthyridine] as the compound, how does the IC50 read?
A: 21 nM

Q: Which IC50 does the source give for `Cc1ccc(C(C)C)cc1N1CCc2nc(-c3cccc4[nH]cc(C)c34)nc(N3CCC[C@@H]3CO)c2C1` [Example 17-AZ, (R)-(1-(6-(5-isopropyl-2-methylphenyl)-2-(3-methyl-1H-indol-4-yl)-5,6,7,8-tetrahydropyrido[4,3-d]pyrimidin-4-yl)pyrrolidin-2-yl)methanol] here?
A: 39 nM

Q: `CCO[C@@H]1CCN(c2nc(-c3c(C)ccc4[nH]nc(C)c34)nc3c2CN(c2c(F)c(C4CC4)nn2C)CC3)CC1(C)C` [Example 56-E, (R)-6-(3-cyclopropyl-4-fluoro-1-methyl-1H-pyrazol-5-yl)-2-(3,5-dimethyl-1H-indazol-4-yl)-4-(4-ethoxy-3,3-dimethylpiperidin-1-yl)-5,6,7,8-tetrahydropyrido[4,3-d]pyrimidine] was tested. Which IC50 did it give?
A: 2 nM

Q: With `CCc1cccc(CC)c1-c1cc(C)c2c(n1)CCN(c1nnnn1C)C2` [Example 48, 2-(2,6-Diethylphenyl)-4-methyl-6-(1-methyl-1H-tetrazol-5-yl)-5,6,7,8-tetrahydro-1,6-naphthyridine] as the compound, how does the IC50 read?
A: 198 nM

Q: For `COc1ccc(Cl)cc1-c1nc2c(c(N3CCCC(C)(C)C3)n1)CN(c1cc(C(C)C)ccc1C)CC2` [Example 19-Q, 2-(5-chloro-2-methoxyphenyl)-4-(3,3-dimethylpiperidin-1-yl)-6-(5-isopropyl-2-methylphenyl)-5,6,7,8-tetrahydropyrido[4,3-d]pyrimidine], which IC50 is on record?
A: 112 nM

Q: Which IC50 does the source give for `Cc1ccc(C(C)C)cc1N1CCc2nc(-c3cccc4[nH]cc(C)c34)nc(N3CC(N(C)C)C3)c2C1` [Example 17-BG, 1-(6-(5-isopropyl-2-methylphenyl)-2-(3-methyl-1H-indol-4-yl)-5,6,7,8-tetrahydropyrido[4,3-d]pyrimidin-4-yl)-N,N-dimethylazetidin-3-amine] here?
A: 15 nM

Q: `Cc1ccc(C)c(-c2nc3c(c(N4CCN(CC(N)=O)C[C@H]4C)n2)CN(c2cc(C(C)C)ccc2C)CC3)c1` [Example 24-C, (R)-2-(4-(2-(2,5-Dimethylphenyl)-6-(5-isopropyl-2-methylphenyl)-5,6,7,8-tetrahydropyrido[4,3-d]pyrimidin-4-yl)-3-methylpiperazin-1-yl)acetamide] was tested. Which IC50 did it give?
A: 31 nM

Q: Which IC50 does the source give for `Cc1ccc(C(C)C)cc1N1CCc2nc(-c3cccc4[nH]cc(C)c34)nc(N[C@@H](CO)C(C)C)c2C1` [Example 17-M, (R)-2-((6-(5-isopropyl-2-methylphenyl)-2-(3-methyl-1H-indol-4-yl)-5,6,7,8-tetrahydropyrido[4,3-d]pyrimidin-4-yl)amino)-3-methylbutan-1-ol] here?
A: 30 nM

Q: Which IC50 does the source give for `CO[C@@H]1CCN(c2nc(-c3c(C)ccc4[nH]nc(C)c34)nc3c2CN(c2c(Cl)c(C(F)F)nn2C)CC3)CC1(C)C` [Example 55-I, (R)-6-(4-chloro-3-(difluoromethyl)-1-methyl-1H-pyrazol-5-yl)-2-(3,5-dimethyl-1H-indazol-4-yl)-4-(4-methoxy-3,3-dimethylpiperidin-1-yl)-5,6,7,8-tetrahydropyrido[4,3-d]pyrimidine] here?
A: 1 nM

Q: Which IC50 does the source give for `[2H]C1([2H])c2c(C)cc(-c3c(C)cnc4[nH]ccc34)nc2CCN1c1cc(C(C)C)ccc1C` [Example 43-D, 6-(5-isopropyl-2-methylphenyl)-4-methyl-2-(5-methyl-1H-pyrrolo[2,3-b]pyridin-4-yl)-5,6,7,8-tetrahydro(5,5-^2H2)-1,6-naphthyridine] here?
A: 802 nM
